Reference: PubChem BioAssay AID248 (DTP/NCI, 2004)
Where “and” joins values, the source holds several entries; their conditions need not be identical. Equal entries are not always repeated. Toxic doses and inconclusive results are not listed. No stated cut-off is given here; in the data, active means T/C of 150% or more; inactive means T/C below 125%.

System: L1210 leukemia ip in BDF1 mice, survival T/C
Test: NCI In Vivo Anticancer Drug Screen. Data for tumor model L1210 Leukemia (intraperitoneal) in B6D2F1 (BDF1) mice
Conditions: endpoint: mean survival time, higher = longer survival
Summary of the method: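 Transplantable tumor model; survival measured in treated vs vehicle control mice. Value = treated/control.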

[1] = dose: 100.0 mg/kg/injection, schedule: Q01DX009 (ip), vehicle: saline with Tween-80
[2] = dose: 100.0 mg/kg/injection, schedule: Q04DX003 (ip), vehicle: saline with Tween-80
[3] = dose: 200.0 mg/kg/injection, schedule: Q01DX009 (ip), vehicle: saline with Tween-80
[4] = dose: 200.0 mg/kg/injection, schedule: Q04DX003 (ip), vehicle: saline with Tween-80
[5] = dose: 400.0 mg/kg/injection, schedule: Q04DX003 (ip), vehicle: saline with Tween-80
[6] = dose: 100.0 mg/kg/injection, schedule: Q01DX001 (ip), vehicle: Klucel (hydroxypropylcellulose) (HPC)
[7] = dose: 100.0 mg/kg/injection, schedule: Q04DX003 (ip), vehicle: Klucel (hydroxypropylcellulose) (HPC)
[8] = dose: 200.0 mg/kg/injection, schedule: Q01DX001 (ip), vehicle: Klucel (hydroxypropylcellulose) (HPC)
[9] = dose: 200.0 mg/kg/injection, schedule: Q04DX003 (ip), vehicle: Klucel (hydroxypropylcellulose) (HPC)
[10] = dose: 400.0 mg/kg/injection, schedule: Q01DX001 (ip), vehicle: Klucel (hydroxypropylcellulose) (HPC)
[11] = dose: 400.0 mg/kg/injection, schedule: Q04DX003 (ip), vehicle: Klucel (hydroxypropylcellulose) (HPC)
[12] = dose: 25.0 mg/kg/injection, schedule: Q04DX003 (ip), vehicle: saline
[13] = dose: 50.0 mg/kg/injection, schedule: Q04DX003 (ip), vehicle: saline
[14] = dose: 50.0 mg/kg/injection, schedule: Q01DX001 (ip), vehicle: saline
[15] = dose: 100.0 mg/kg/injection, schedule: Q04DX003 (ip), vehicle: saline
[16] = dose: 200.0 mg/kg/injection, schedule: Q04DX003 (ip), vehicle: saline

Measured: T/C

Cc1ccccc1OC(F)(F)C(F)Cl (centres undefined)
inactive: [1] 103 % of control | [2] 96 % of control | [3] 91 % of control | [4] 94 % of control | dose: 400.0 mg/kg/injection, schedule: Q01DX009 (ip), vehicle: saline with Tween-80 86 % of control | [5] 96 % of control

Clc1nc(Cl)c2c(ncn2Cc2ccccc2)n1
inactive: dose: 100.0 mg/kg/injection, schedule: Q01DX001 (ip), vehicle: other 95 % of control | dose: 200.0 mg/kg/injection, schedule: Q01DX001 (ip), vehicle: other 104 % of control

O=[N+]([O-])c1cccc(C=Nc2ccc(Cl)cc2Cl)c1
inactive: [6] 92 % of control | [7] 102 % of control | [8] 91 % of control | [9] 98 % of control | [10] 91 % of control | [11] 89 % of control

[C-]#[N+]C(C)(CC)c1ccccc1 (centres undefined)
inactive: dose: 6.25 mg/kg/injection, schedule: Q01DX009 (ip), vehicle: saline with Tween-80 93 % of control | dose: 6.25 mg/kg/injection, schedule: Q04DX003 (ip), vehicle: acetone 96 % of control | dose: 12.5 mg/kg/injection, schedule: Q01DX001 (ip), vehicle: acetone 91 % of control | dose: 12.5 mg/kg/injection, schedule: Q01DX009 (ip), vehicle: saline with Tween-80 95 % of control | dose: 12.5 mg/kg/injection, schedule: Q04DX003 (ip), vehicle: acetone 108 % of control | dose: 25.0 mg/kg/injection, schedule: Q01DX001 (ip), vehicle: acetone 96 % of control | dose: 25.0 mg/kg/injection, schedule: Q01DX009 (ip), vehicle: saline with Tween-80 95 % of control | dose: 25.0 mg/kg/injection, schedule: Q04DX003 (ip), vehicle: acetone 100 % of control

CCOC(=O)N1CC2CCC(C1)N2C
inactive: dose: 12.5 mg/kg/injection, schedule: Q04DX003 (ip), vehicle: saline 103 % of control | [12] 106 % of control | [13] 101 % of control

CCCCCCN(C)Cc1ccc(OCCOc2ccc(CN(C)CCCCCC)cc2)cc1
inactive: [14] 100 % of control

CCOC(=O)NC(C(=O)OC)C(=O)OC
inactive: dose: 100.0 mg/kg/injection, schedule: Q01DX009 (ip), vehicle: Klucel (hydroxypropylcellulose) (HPC) 97 % of control | [15] 100 % of control | dose: 200.0 mg/kg/injection, schedule: Q01DX009 (ip), vehicle: Klucel (hydroxypropylcellulose) (HPC) 97 % of control | [16] 97 % of control | dose: 400.0 mg/kg/injection, schedule: Q01DX009 (ip), vehicle: Klucel (hydroxypropylcellulose) (HPC) 97 % of control | dose: 400.0 mg/kg/injection, schedule: Q04DX003 (ip), vehicle: saline 100 % of control

CC1=[N+]([O-])[N+]([O-])=C(c2ccccc2)C1=O
inactive: dose: 100.0 mg/kg/injection, schedule: Q04DX002 (ip), vehicle: Klucel (hydroxypropylcellulose) (HPC) 100 % of control | dose: 200.0 mg/kg/injection, schedule: Q04DX002 (ip), vehicle: Klucel (hydroxypropylcellulose) (HPC) 95 % of control | dose: 400.0 mg/kg/injection, schedule: Q04DX002 (ip), vehicle: Klucel (hydroxypropylcellulose) (HPC) 87 % of control

N#CCCN(NC(=O)OCc1ccccc1)C(=O)OCc1ccccc1
inactive: dose: 100.0 mg/kg/injection, schedule: Q01DX001 (ip), vehicle: carboxymethylcellulose (CMC) 95 % of control | dose: 200.0 mg/kg/injection, schedule: Q01DX001 (ip), vehicle: carboxymethylcellulose (CMC) 89 % of control | dose: 400.0 mg/kg/injection, schedule: Q01DX001 (ip), vehicle: carboxymethylcellulose (CMC) 95 % of control

Cc1ccc(S(=O)(=O)Oc2ccc3ccccc3c2)cc1
inactive: [1] 88 % of control | [2] 98 % of control | [4] 86 % of control | [5] 86 % of control

O=C(S)c1ccccc1.[Pb]
inactive: dose: 100.0 mg/kg/injection, schedule: Q04DX002 (ip), vehicle: saline with Tween-80 87 % of control | dose: 200.0 mg/kg/injection, schedule: Q04DX002 (ip), vehicle: saline with Tween-80 108 % of control

COc1cc(/C=C\C(=O)c2ccccc2)c([N+](=O)[O-])cc1OC
inactive: dose: 100.0 mg/kg/injection, schedule: Q01DX001 (ip), vehicle: water 90 % of control | dose: 200.0 mg/kg/injection, schedule: Q01DX001 (ip), vehicle: water 88 % of control | dose: 400.0 mg/kg/injection, schedule: Q01DX001 (ip), vehicle: water 90 % of control

Cc1cc2oc(C)[n+](Cc3ccccc3)c2cc1C
inactive: [1] 105 % of control and 86 % of control | [2] 97 % of control | [3] 96 % of control and 110 % of control | [4] 95 % of control | [5] 95 % of control

NCc1ccc(NC(=O)c2ccc(C(=O)Nc3ccc(CN)cc3)cc2)cc1
inactive: dose: 15.0 mg/kg/injection, schedule: Q01DX Z (ip), vehicle: water 97 % of control | dose: 20.0 mg/kg/injection, schedule: Q01DX Z (ip), vehicle: water 102 % of control | dose: 30.0 mg/kg/injection, schedule: Q01DX Z (ip), vehicle: water 96 % of control | dose: 40.0 mg/kg/injection, schedule: Q01DX Z (ip), vehicle: water 102 % of control

Cc1ccc(S(=O)(=O)N(CCCc2c(N)nc(N)nc2-c2ccccc2)c2ccccc2)cc1
inactive: [15] 100 % of control | [16] 97 % of control

CSCCNC(=O)CS(=O)(=O)c1ccc(C)cc1
inactive: [2] 100 % of control | [4] 100 % of control | [5] 92 % of control

CC(=O)Nc1ccc2c(c1)C(=O)NC2=O
inactive: [6] 93 % of control | [8] 90 % of control | [10] 90 % of control

CC(c1ccccc1)n1ccnc1CC#N (centres undefined)
inactive: dose: 12.5 mg/kg/injection, schedule: Q01DX009 (ip), vehicle: saline 109 % of control and 88 % of control | dose: 12.5 mg/kg/injection, schedule: Q04DX002 (ip), vehicle: saline 91 % of control | dose: 25.0 mg/kg/injection, schedule: Q01DX001 (ip), vehicle: saline 100 % of control | dose: 25.0 mg/kg/injection, schedule: Q01DX009 (ip), vehicle: saline 107 % of control and 114 % of control | dose: 25.0 mg/kg/injection, schedule: Q04DX002 (ip), vehicle: saline 101 % of control and 105 % of control and 109 % of control | [12] 88 % of control | [14] 101 % of control | dose: 50.0 mg/kg/injection, schedule: Q01DX009 (ip), vehicle: saline 97 % of control and 98 % of control | dose: 50.0 mg/kg/injection, schedule: Q04DX002 (ip), vehicle: saline 95 % of control and 96 % of control and 102 % of control | [13] 93 % of control

c1ccc(-c2cccc3c2N=C2C3=Nc3c2cccc3-c2ccccc2)cc1
inactive: [7] 96 % of control | [9] 95 % of control | [11] 93 % of control

CC1CC[N-]CC1.CC1CC[N-]CC1.CC1CC[N-]CC1.CC1CC[N-]CC1.[Pt+4]
inactive: dose: 0.39 mg/kg/injection, schedule: Q01DX009 (ip), vehicle: saline 100 % of control | dose: 0.39 mg/kg/injection, schedule: Q04DX003 (ip), vehicle: saline 97 % of control | dose: 0.78 mg/kg/injection, schedule: Q01DX009 (ip), vehicle: saline 92 % of control | dose: 0.78 mg/kg/injection, schedule: Q04DX003 (ip), vehicle: saline 100 % of control | dose: 1.56 mg/kg/injection, schedule: Q01DX009 (ip), vehicle: saline 94 % of control | dose: 1.56 mg/kg/injection, schedule: Q04DX003 (ip), vehicle: saline 102 % of control | dose: 3.12 mg/kg/injection, schedule: Q04DX003 (ip), vehicle: saline 96 % of control
